Converted amounts (≈) assume the structure as drawn. Counter-ions that a name gives are not always drawn.
Test: Solubility of the active ingredient in water at room temperature
Format: physicochemical
Description: Further, unless specified otherwise, any measured provisions such as densities, solubulities, or the like, are understood to be measured at room temperature (i.e., 20±5° C. as defined by the European Pharmacopoeia or by the WHO guidance ‘Guidelines for the Storage of Essential Medicines and Other Health Commodities’ (2003)).

solubility in water at room temperature [µg/mL] | solubility [µg/mL] | Compound
12500 | – | vitamin B12 [Vit. B12]
– | ≥ 100000 | CNC[C@H](O)c1cccc(O)c1 [phenylephrine HCl]
– | 2000 (≈ 8.61 mM) | COc1ccc2[nH]cc(CCNC(C)=O)c2c1 [melatonin]

Source: patent US20260060928A1, “TALC-FREE ACTIVE INGREDIENT COATING” (Hermes Pharma GmbH, priority 2022, published 2026)
